Results: patent US12202818B2, “Compounds and methods for CD73 modulation and indications therefor” (Opna Bio SA, priority 2020, dated 2025)

Columns and labels:
human CD73 = target: T1, human CD73 (Homo sapiens, UniProt P21589); experiment: Inhibitor activity against CD73 in cell based assay (CD73 expressing CHO-K1 cells); details: CHO-K1 cells expressing human CD73, 150 μM AMP, 4 hours of incubation; read-out: CHO-K1 CELL_VARIANT: CD73 IC50
T1 construct: expressed in transfected cells
T1 sequence (P21589 27-549): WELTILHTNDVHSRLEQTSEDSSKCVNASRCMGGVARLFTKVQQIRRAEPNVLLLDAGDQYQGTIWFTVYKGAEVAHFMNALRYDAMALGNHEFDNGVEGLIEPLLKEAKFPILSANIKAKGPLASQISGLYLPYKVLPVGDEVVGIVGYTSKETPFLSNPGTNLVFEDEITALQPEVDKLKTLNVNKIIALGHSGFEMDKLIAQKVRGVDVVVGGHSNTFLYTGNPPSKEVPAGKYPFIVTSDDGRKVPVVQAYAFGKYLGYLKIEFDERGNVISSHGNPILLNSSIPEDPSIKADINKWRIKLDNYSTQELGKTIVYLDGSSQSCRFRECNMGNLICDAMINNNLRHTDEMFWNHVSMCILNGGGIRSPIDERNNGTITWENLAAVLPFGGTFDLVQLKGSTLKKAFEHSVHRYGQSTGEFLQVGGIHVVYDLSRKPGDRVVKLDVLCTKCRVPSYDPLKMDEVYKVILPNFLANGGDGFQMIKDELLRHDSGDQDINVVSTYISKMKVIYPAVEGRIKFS
Experimental: Determine Inhibitor Activity Against CD73 in Cell Based Assay
CD73 expressing CHO-K1 cell clones were generated upon stable transfection of a plasmid expressing human CD73 under the control of CMV promoter. Cells were selected in Ham's F-12K (Kaighn's) media supplemented with 10% fetal bovine serum and 1 mg/ml G418 at 37° C. in a humidified incubator supplied with 5% CO2. The assays were performed as follows. Cells were seeded in a 96 well plate in 50 μL of culture media at a density of 1×10^4 per well. Compound at a maximal concentration of 5 mM was serially diluted 1:3 in DMSO for a total of 8 point titration. A 2 μL aliquot of each dilution point was added to […] culture media and 25 µL was added to each well, providing 10 μM compound at the maximum concentration point. AMP was diluted in culture media and 25 μL was added to each well with a final concentration of 150 μM. 4 wells containing 0.2% DMSO treated cells and AMP served as high controls and 4 wells containing media only with 0.2% DMSO and AMP served as low controls. After 4 hours of incubation, 20 μL of the supernatant was transferred to a 384 well plate. AMP level in supernatant was measured indirectly by adding 5 μL of CellTiter-Glo® 2.0 reagent and 5 μL of ATP with a final concentration of 1 μM. Following incubation of plate at room temperature for 30 minutes, luminescent signal was read on a Tecan plate reader. The percentage inhibition at individual concentrations relative to high and low controls was calculated. The data were analyzed by using nonlinear regression to generate ICso values.

[1] = target: T2, Human CD73 (amino acid residues 27-549) (Homo sapiens, UniProt P21589); experiment: CD73 enzymatic assay (luciferase-based indirect assay, CellTiter-Glo); assay type: biochemical; details: 0.4 nM CD73, 150 μM AMP, 1 hour at room temperature
T2 construct: Human CD73 (amino acid residues 27-549); His tag (N); made in house; host or cells: E. coli
T2 sequence (P21589 27-549): T1 sequence (P21589 27-549)
Experimental: CD73 enzymatic activity was measured in a luciferase-based indirect assay using CellTiter-Glo® system from Promega. The luciferase reaction in the presence of ATP is inhibited by AMP, a primary substrate of CD73. Addition of CD73 enzyme to the reaction converts AMP to adenosine, and release the inhibition, producing a luminescent signal. Inhibition of CD73 leads to the decrease of this luminescent signal.
Human CD73 (amino acid residues 27-549) with N-Terminal His tag was purified in E. coli. All the assay components were prepared in 50 mM HEPEs buffer (pH 7.4) with 0.01% Tween-20. The CD73 enzymatic assay was performed using 0.4 nM CD73 and 150 μM AMP. 9.5 μL of CD73 protein and 9.5 μL of AMP were added to the wells of a 384 well plate containing lpL of various concentrations of test compound or DMSO vehicle and incubated for 1 hour at room temperature. 16 wells containing CD73, AMP and 5% DMSO served as high control. 16 wells containing AMP and 5% DMSO served as low control. Enzymatic reaction was stopped and AMP level was measured indirectly by adding 5 μL of CellTiter-Glo® 2.0 reagent and 5 μL of ATP with a final concentration of 1 μM. Following incubation of the plate at room temperature for 30 minutes, luminescent signal was read on a Tecan plate reader. The percentage inhibition at individual concentrations relative to high and low controls was calculated. The data were analyzed by using nonlinear regression to generate IC50 values.

| IC50 (human CD73) | IC50 [1] | Structure (SMILES) |
| --- | --- | --- |
| 0.001 to 10 µM | 0.001 to 10 µM | CNC(=O)Cn1nc(C)c(-c2ccnc(O[C@@H]3CCN(c4cn[nH]c(=O)c4Cl)C3)c2)c1C [P-0041, (R)-2-(4-(2-((1-(5-chloro-6-oxo-1,6-dihydropyridazin-4-yl)pyrrolidin-3-yl)oxy)pyridin-4-yl)-3,5-dimethyl-1H-pyrazol-1-yl)-N-methylacetamide] |
| 0.001 to 10 µM | 0.001 to 10 µM | CC(C)(O)Cn1cc(-c2ccnc(O[C@@H]3CCN(c4cn[nH]c(=O)c4Cl)C3)c2)cn1 [P-0228, (R)-4-chloro-5-(3-((4-(1-(2-hydroxy-2-methylpropyl)-1H-pyrazol-4-yl)pyridin-2-yl)oxy)pyrrolidin-1-yl)pyridazin-3(2H)-one] |
| 0.001 to 10 µM | 0.001 to 10 µM | CCCNS(=O)(=O)c1ccc(-c2ccnc(O[C@@H]3CCN(c4cn[nH]c(=O)c4Cl)C3)c2)c(Cl)c1 [P-0233, (R)-3-chloro-4-(2-((1-(5-chloro-6-oxo-1,6-dihydropyridazin-4-yl)pyrrolidin-3-yl)oxy)pyridin-4-yl)-N-propylbenzenesulfonamide] |
| 0.001 to 10 µM | 0.001 to 10 µM | NC1CCC(c2ccnc(O[C@@H]3CCN(c4cn[nH]c(=O)c4Cl)C3)c2)CC1 (stereo partly drawn) [P-0059, (R)-5-(3-((4-(4-aminocyclohexyl)pyridin-2-yl)oxy)pyrrolidin-1-yl)-4-chloropyridazin-3(2H)-one] |
| 0.001 to 10 µM | 0.001 to 10 µM | Cc1nn(C)c(C)c1-c1cc(O[C@@H]2CCN(c3cnn(CCO)c(=O)c3Cl)C2)ccn1 [P-0135, (R)-4-chloro-2-(2-hydroxyethyl)-5-(3-((2-(1,3,5-trimethyl-1H-pyrazol-4-yl)pyridin-4-yl)oxy)pyrrolidin-1-yl)pyridazin-3(2H)-one] |
| 0.001 to 10 µM | 0.001 to 10 µM | Cc1nn(CC2CCCO2)c(C)c1-c1ccnc(O[C@@H]2CCN(c3cn[nH]c(=O)c3Cl)C2)c1 (stereo partly drawn) [P-0042, 4-chloro-5-((3R)-3-((4-(3,5-dimethyl-1-((tetrahydrofuran-2-yl)methyl)-1H-pyrazol-4-yl)pyridin-2-yl)oxy)pyrrolidin-1-yl)pyridazin-3(2H)-one] |
| 0.001 to 10 µM | 0.001 to 10 µM | Cc1nn(CC(C)(C)O)c(C)c1-c1cc(O[C@@H]2CCN(c3cn[nH]c(=O)c3Cl)C2)ncn1 [P-0037, (R)-4-chloro-5-(3-((6-(1-(2-hydroxy-2-methylpropyl)-3,5-dimethyl-1H-pyrazol-4-yl)pyrimidin-4-yl)oxy)pyrrolidin-1-yl)pyridazin-3(2H)-one] |
| 0.001 to 10 µM | 0.001 to 10 µM | CC(C)(O)CN1CCC(c2ccnc(O[C@@H]3CCN(c4cn[nH]c(=O)c4Cl)C3)c2)CC1 [P-0010, (R)-4-chloro-5-(3-((4-(1-(2-hydroxy-2-methylpropyl)piperidin-4-yl)pyridin-2-yl)oxy)pyrrolidin-1-yl)pyridazin-3(2H)-one] |
| 0.001 to 10 µM | 0.001 to 10 µM | O=c1[nH]ncc(N2CC[C@@H](Oc3cc(-c4ccc(S(=O)(=O)N5CCCCC5)cc4)c(Cl)cn3)C2)c1Cl [P-0249, (R)-4-chloro-5-(3-((5-chloro-4-(4-(piperidin-1-ylsulfonyl)phenyl)pyridin-2-yl)oxy)pyrrolidin-1-yl)pyridazin-3(2H)-one] |
| 0.001 to 10 µM | 0.001 to 10 µM | Cc1noc(C)c1-c1cc(O[C@@H]2CCN(c3cnn(CCO)c(=O)c3Cl)C2)ccn1 [P-0136, (R)-4-chloro-5-(3-((2-(3,5-dimethylisoxazol-4-yl)pyridin-4-yl)oxy)pyrrolidin-1-yl)-2-(2-hydroxyethyl)pyridazin-3(2H)-one] |
| 0.001 to 10 µM | 0.001 to 10 µM | CN1CCC(c2ccnc(O[C@@H]3CCN(c4cn[nH]c(=O)c4Cl)C3)c2)CC1 [P-0008, (R)-4-chloro-5-(3-((4-(1-methylpiperidin-4-yl)pyridin-2-yl)oxy)pyrrolidin-1-yl)pyridazin-3(2H)-one] |
| 0.001 to 10 µM | 0.001 to 10 µM | Cc1nn(C)c(C)c1-c1ccnc(O[C@H]2CN(c3cnn(CCO)c(=O)c3Cl)C[C@@H]2F)c1 [P-0142, 4-chloro-5-((3S,4S)-3-fluoro-4-((4-(1,3,5-trimethyl-1H-pyrazol-4-yl)pyridin-2-yl)oxy)pyrrolidin-1-yl)-2-(2-hydroxyethyl)pyridazin-3(2H)-one] |
| 0.001 to 10 µM | 0.001 to 10 µM | O=c1[nH]ncc(N2CC[C@@H](Oc3cc(-c4ccc(S(=O)(=O)Nc5ccc(F)cc5)cc4)ccn3)C2)c1Cl [P-0241, (R)-4-(2-((1-(5-chloro-6-oxo-1,6-dihydropyridazin-4-yl)pyrrolidin-3-yl)oxy)pyridin-4-yl)-N-(4-fluorophenyl)benzenesulfon-amide] |
| 0.001 to 10 µM | 0.001 to 10 µM | Cc1noc(C)c1-c1cc(F)nc(O[C@@H]2CCN(c3cnn(CCO)c(=O)c3Cl)C2)c1 [P-0123, (R)-4-chloro-5-(3-((4-(3,5-dimethylisoxazol-4-yl)-6-fluoropyridin-2-yl)oxy)pyrrolidin-1-yl)-2-(2-hydroxyethyl)pyridazin-3(2H)-one] |
| 0.001 to 10 µM | 0.001 to 10 µM | CC1CCCN1c1ccnc(O[C@@H]2CCN(c3cn[nH]c(=O)c3Cl)C2)c1 (stereo partly drawn) [P-0093, 4-chloro-5-((3R)-3-((4-(2-methylpyrrolidin-1-yl)pyridin-2-yl)oxy)pyrrolidin-1-yl)pyridazin-3(2H)-one] |
| 0.001 to 10 µM | 0.001 to 10 µM | Cc1cc(S(=O)(=O)NC2CC2)ccc1-c1ccnc(O[C@@H]2CCN(c3cn[nH]c(=O)c3Cl)C2)c1 [P-0235, (R)-4-(2-((1-(5-chloro-6-oxo-1,6-dihydropyridazin-4-yl)pyrrolidin-3-yl)oxy)pyridin-4-yl)-N-cyclopropyl-3-methylbenzenesulfonamide] |
| 0.001 to 10 µM | 0.001 to 10 µM | Cc1nn(C(CO)CCl)c(C)c1-c1ccnc(O[C@@H]2CCN(c3cn[nH]c(=O)c3Cl)C2)c1 (stereo partly drawn) [P-0069, 4-chloro-5-((3R)-3-((4-(1-(1-chloro-3-hydroxypropan-2-yl)-3,5-dimethyl-1H-pyrazol-4-yl)pyridin-2-yl)oxy)pyrrolidin-1-yl)pyridazin-3(2H)-one] |
| 0.001 to 10 µM | 0.001 to 10 µM | Cc1noc(C)c1-c1cc(O[C@@H]2CCN(c3cnn(CCCO)c(=O)c3Cl)C2)ncn1 [P-0139, (R)-4-chloro-5-(3-((6-(3,5-dimethylisoxazol-4-yl)pyrimidin-4-yl)oxy)pyrrolidin-1-yl)-2-(3-hydroxypropyl)pyridazin-3(2H)-one] |
| 0.001 to 10 µM | 0.001 to 10 µM | Cc1c(-c2cc(F)nc(O[C@@H]3CCN(c4cn[nH]c(=O)c4Cl)C3)c2)cnn1CC1(C)COC1 [P-0151, (R)-4-chloro-5-(3-((6-fluoro-4-(5-methyl-1-((3-methyloxetan-3-yl)methyl)-1H-pyrazol-4-yl)pyridin-2-yl)oxy)pyrrolidin-l-yl)pyridazin-3(2H)-one] |
| 0.001 to 10 µM | 0.001 to 10 µM | Cc1nn(CC(F)F)c(C)c1-c1cc(F)nc(O[C@@H]2CCN(c3cn[nH]c(=O)c3Cl)C2)c1 [P-0169, (R)-4-chloro-5-(3-((4-(1-(2,2-difluoroethyl)-3,5-dimethyl-1H-pyrazol-4-yl)-6-fluoropyridin-2-yl)oxy)pyrrolidin-1-yl)pyridazin-3(2H)-one] |
